Assay results published in article PMC4921915 (Scientific Reports, 2016).

Target: T1, α1β3 GABAA receptor, 3α1:2β3 stoichiometry (α1 + β3, 30:1) (Homo sapiens, UniProt P14867+P28472)
T1 construct: gene GABRA1; full-length free subunits, cRNA ratio α1:β3 30:1, Xenopus laevis oocytes; heteropentamer; 'Human' printed for α1 and γ2, β3 implied by same sentence
T1 sequence (P14867 28-456): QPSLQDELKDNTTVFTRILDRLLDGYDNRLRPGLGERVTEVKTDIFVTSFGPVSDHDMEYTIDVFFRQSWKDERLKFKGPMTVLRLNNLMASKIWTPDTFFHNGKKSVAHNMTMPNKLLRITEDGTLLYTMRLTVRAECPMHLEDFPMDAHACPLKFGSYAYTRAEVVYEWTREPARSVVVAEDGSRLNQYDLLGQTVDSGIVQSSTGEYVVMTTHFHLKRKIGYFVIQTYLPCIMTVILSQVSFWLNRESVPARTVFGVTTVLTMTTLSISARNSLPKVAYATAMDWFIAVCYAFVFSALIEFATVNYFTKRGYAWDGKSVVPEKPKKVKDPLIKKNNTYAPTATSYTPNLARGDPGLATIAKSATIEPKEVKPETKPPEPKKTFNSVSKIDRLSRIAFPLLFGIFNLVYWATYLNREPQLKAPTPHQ
T1 sequence (P28472 26-473): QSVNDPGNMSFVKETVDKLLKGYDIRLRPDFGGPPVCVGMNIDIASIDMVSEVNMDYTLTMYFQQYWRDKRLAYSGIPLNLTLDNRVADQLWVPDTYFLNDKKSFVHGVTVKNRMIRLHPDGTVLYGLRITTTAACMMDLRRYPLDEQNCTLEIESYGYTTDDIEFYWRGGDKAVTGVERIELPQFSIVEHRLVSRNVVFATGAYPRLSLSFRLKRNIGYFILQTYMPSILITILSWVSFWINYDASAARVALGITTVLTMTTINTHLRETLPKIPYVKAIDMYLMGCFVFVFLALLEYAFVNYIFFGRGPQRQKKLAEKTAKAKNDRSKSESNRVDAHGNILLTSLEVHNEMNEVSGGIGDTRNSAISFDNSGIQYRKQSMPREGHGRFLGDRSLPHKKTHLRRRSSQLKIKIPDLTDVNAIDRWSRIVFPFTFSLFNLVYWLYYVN
Test: two-electrode voltage clamp, Xenopus oocytes
Type: cell-based
Conditions: read-out: % inhibition at 1 μM

Work on CCOC(=O)c1ncn2c1CN(C)C(=O)c1cc(F)ccc1-2 [flumazenil, Ethyl 8-fluoro-5-methyl-6-oxo-5,6-dihydro-4H-benzo[f]imidazo[1,5-a][1,4]diazepine-3-carboxylate] yielded an inhibition at 1 µM of 95%.
